Experimental data published in patent US8192962B2, “Processes for detecting toxic substances” (Daikin Industries, Ltd., priority 2001, dated 2012).

Tested on: Genes belonging to other category
Assay: DNA chip mRNA expression in yeast, genes belonging to other category (Table 9)
Format: cell-based, Saccharomyces cerevisiae S288C
Method in brief: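 Expression change after 2 h toxicant exposure (growth-inhibiting, sub-lethal) of log-phase S. cerevisiae S288C at 25° C. Oligo-dT-purified mRNA was labeled with Cy3-dUTP or Cy5-dUTP and hybridized >12 h at 65° C. to a genome-wide chip; ratio of scanned fluorescence to control.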

Na2As [(1)]
The level of expressed mRNA in the presence of chemical substance/The level of expressed mRNA in the absence of chemical substance (yeast gene YAR010C): 0.8 | The level of expressed mRNA in the presence of chemical substance/The level of expressed mRNA in the absence of chemical substance (yeast gene YBL005W-A): 1.0 | The level of expressed mRNA in the presence of chemical substance/The level of expressed mRNA in the absence of chemical substance (yeast gene YBL041W): 1.2 | The level of expressed mRNA in the presence of chemical substance/The level of expressed mRNA in the absence of chemical substance (yeast gene YBL043W): 1.2 | The level of expressed mRNA in the presence of chemical substance/The level of expressed mRNA in the absence of chemical substance (yeast gene YBL078C): 2.3 | The level of expressed mRNA in the presence of chemical substance/The level of expressed mRNA in the absence of chemical substance (yeast gene YBR214W): 0.9 | The level of expressed mRNA in the presence of chemical substance/The level of expressed mRNA in the absence of chemical substance (yeast gene YCL020W): 1.1 | The level of expressed mRNA in the presence of chemical substance/The level of expressed mRNA in the absence of chemical substance (yeast gene YCL027W): 0.7 | The level of expressed mRNA in the presence of chemical substance/The level of expressed mRNA in the absence of chemical substance (yeast gene YCR004C): 1.7 | The level of expressed mRNA in the presence of chemical substance/The level of expressed mRNA in the absence of chemical substance (yeast gene YCR071C): 1.1 | The level of expressed mRNA in the presence of chemical substance/The level of expressed mRNA in the absence of chemical substance (yeast gene YCR088W): 0.9 | The level of expressed mRNA in the presence of chemical substance/The level of expressed mRNA in the absence of chemical substance (yeast gene YDL008W): 1.1 | The level of expressed mRNA in the presence of chemical substance/The level of expressed mRNA in the absence of chemical substance (yeast gene YDL238C): 0.7 | The level of expressed mRNA in the presence of chemical substance/The level of expressed mRNA in the absence of chemical substance (yeast gene YDR055W): 1.7 | The level of expressed mRNA in the presence of chemical substance/The level of expressed mRNA in the absence of chemical substance (yeast gene YDR084C): 0.9 | The level of expressed mRNA in the presence of chemical substance/The level of expressed mRNA in the absence of chemical substance (yeast gene YDR085C): 1.9 | The level of expressed mRNA in the presence of chemical substance/The level of expressed mRNA in the absence of chemical substance (yeast gene YDR104C): 0.8 | The level of expressed mRNA in the presence of chemical substance/The level of expressed mRNA in the absence of chemical substance (yeast gene YDR115W): 1.3 | The level of expressed mRNA in the presence of chemical substance/The level of expressed mRNA in the absence of chemical substance (yeast gene YDR259C): 1.4 | The level of expressed mRNA in the presence of chemical substance/The level of expressed mRNA in the absence of chemical substance (yeast gene YDR315C): 1.0 | The level of expressed mRNA in the presence of chemical substance/The level of expressed mRNA in the absence of chemical substance (yeast gene YDR358W): 0.7 | The level of expressed mRNA in the presence of chemical substance/The level of expressed mRNA in the absence of chemical substance (yeast gene YDR388W): 0.7 | The level of expressed mRNA in the presence of chemical substance/The level of expressed mRNA in the absence of chemical substance (yeast gene YDR432W): 0.5 | The level of expressed mRNA in the presence of chemical substance/The level of expressed mRNA in the absence of chemical substance (yeast gene YDR481C): 0.7 | The level of expressed mRNA in the presence of chemical substance/The level of expressed mRNA in the absence of chemical substance (yeast gene YDR510W): 1.0 | The level of expressed mRNA in the presence of chemical substance/The level of expressed mRNA in the absence of chemical substance (yeast gene YEL042W): 0.6 | The level of expressed mRNA in the presence of chemical substance/The level of expressed mRNA in the absence of chemical substance (yeast gene YEL066W): 2.0 | The level of expressed mRNA in the presence of chemical substance/The level of expressed mRNA in the absence of chemical substance (yeast gene YER039C): 1.0 | The level of expressed mRNA in the presence of chemical substance/The level of expressed mRNA in the absence of chemical substance (yeast gene YER107C): 0.9 | The level of expressed mRNA in the presence of chemical substance/The level of expressed mRNA in the absence of chemical substance (yeast gene YER130C): 0.9 | The level of expressed mRNA in the presence of chemical substance/The level of expressed mRNA in the absence of chemical substance (yeast gene YFL022C): 0.8 | The level of expressed mRNA in the presence of chemical substance/The level of expressed mRNA in the absence of chemical substance (yeast gene YFL028C): 1.2 | The level of expressed mRNA in the presence of chemical substance/The level of expressed mRNA in the absence of chemical substance (yeast gene YFL043C): 1.0 | The level of expressed mRNA in the presence of chemical substance/The level of expressed mRNA in the absence of chemical substance (yeast gene YGL158W): 1.1 | The level of expressed mRNA in the presence of chemical substance/The level of expressed mRNA in the absence of chemical substance (yeast gene YGL229C): 0.6 | The level of expressed mRNA in the presence of chemical substance/The level of expressed mRNA in the absence of chemical substance (yeast gene YGR136W): 0.9 | The level of expressed mRNA in the presence of chemical substance/The level of expressed mRNA in the absence of chemical substance (yeast gene YGR189C): 1.1 | The level of expressed mRNA in the presence of chemical substance/The level of expressed mRNA in the absence of chemical substance (yeast gene YGR213C): 5.4 | The level of expressed mRNA in the presence of chemical substance/The level of expressed mRNA in the absence of chemical substance (yeast gene YGR257C): 0.7 | The level of expressed mRNA in the presence of chemical substance/The level of expressed mRNA in the absence of chemical substance (yeast gene YHR004C): 0.9 | The level of expressed mRNA in the presence of chemical substance/The level of expressed mRNA in the absence of chemical substance (yeast gene YHR071W): 1.5 | The level of expressed mRNA in the presence of chemical substance/The level of expressed mRNA in the absence of chemical substance (yeast gene YHR139C): 3.0 | The level of expressed mRNA in the presence of chemical substance/The level of expressed mRNA in the absence of chemical substance (yeast gene YHR142W): 1.5 | The level of expressed mRNA in the presence of chemical substance/The level of expressed mRNA in the absence of chemical substance (yeast gene YIL123W): 1.0 | The level of expressed mRNA in the presence of chemical substance/The level of expressed mRNA in the absence of chemical substance (yeast gene YIL140W): 0.7 | The level of expressed mRNA in the presence of chemical substance/The level of expressed mRNA in the absence of chemical substance (yeast gene YJL073W): 0.8 | The level of expressed mRNA in the presence of chemical substance/The level of expressed mRNA in the absence of chemical substance (yeast gene YJL089W): 1.1 | The level of expressed mRNA in the presence of chemical substance/The level of expressed mRNA in the absence of chemical substance (yeast gene YJL116C): 0.9 | The level of expressed mRNA in the presence of chemical substance/The level of expressed mRNA in the absence of chemical substance (yeast gene YJR004C): 0.2 | The level of expressed mRNA in the presence of chemical substance/The level of expressed mRNA in the absence of chemical substance (yeast gene YJR086W): 1.2
